Paper PMC11997541, “Synthesis and Biological Activity of Ultrashort Antimicrobial Peptides Bearing a Non‐Coded Amino Acid” (Journal of Peptide Science, 2025)
Residues, ends and D or L forms follow the SMILES beside them.

Experiments:
[1] = Peptide stability in serum; assay type: in vitro ADME; conditions: human serum in HEPES 25 mM pH 7.6, 37°C, over 24 h, HPLC or HPLC–MS, triplicate
Procedure: The peptides were dissolved in DMSO at a concentration of 5 mg/mL. In Eppendorf tubes, 1 mL of HEPES buffer (25 mM, pH = 7.6) was temperature equilibrated at 37°C before adding 250 μL of human serum and 20 μL of peptide solution. The reaction was monitored for 24 h. At fixed intervals, 100 μL of the solution was withdrawn and added with 200 μL of absolute ethanol. The sample was kept on ice for 15 min and then centrifuged at 16,000 g for 5 min. Finally, the supernatant solution was analyzed by HPLC or HPLC–MS..
A peptide of similar length, not resistant to degradation in serum, was used as a positive test. The peptide sequence is as follows: Tyr‐Ser‐Ser‐Phe‐Leu.
To verify peptide stability in buffer solution, samples containing peptide solutions, buffer, and ethanol were also analyzed. All of the degradation experiments were carried out in triplicate.

[2] = no CD signal in phosphate buffer (PB) pH 7.4, peptide 1 mM, room temperature
Procedure: Electronic CD curves in the amide region (190–260 nm) were obtained on a Jasco (Tokyo, Japan) model J‐1500 spectropolarimeter. A fused quartz cell of 0.02 cm pathlength (Hellma, Mühlheim, Germany) was used to record spectra in phosphate buffer pH 7.4 (PB), and aqueous sodium dodecyl sulfate (SDS, 30 mM). Spectra were collected at room temperature with peptide concentrations of 1 mM. After baseline subtraction, the values recorded were transformed into [θ]T, the total molar ellipticity (deg × cm^2 × dmol^−1) by means of the JASCO software Spectra Manager.

S. ent. ATCC 13076 = experiment: Kirby–Bauer disk diffusion; assay type: cell-based, Salmonella enterica; conditions: 20 h; for diameter of growth inhibition, S. ent. ATCC 13076: 100 μg peptide per 6 mm disk, Mueller–Hinton pH 7.2–7.4, 37°C, — read as no inhibition
Procedure: (§1) The antibacterial activity was tested on Gram‐positive ( Staphylococcus aureus ATCC 25923, Streptococcus pyogenes ATCC 19615, Listeria monocytogenes ATCC 7644, Bacillus subtilis ATCC […], Enterococcus faecalis ATCC 29212, E. faecalis ATCC 51299, and some clinical isolates, Streptococcus mitis , Streptococcus oralis , S. pyogenes Group A and Streptococcus Group G), Gram‐negative ( Klebsiella aerogenes ATCC 13048, Salmonella enterica ATCC […], Escherichia coli ATCC 25922, Pseudomonas aeruginosa ATCC 27853, Acinetobacter baumannii ATCC […], Klebsiella pneumoniae ATCC 13883, Proteu mirabilis ATCC 14153) bacterial strains, and Saccharomyces cerevisiae ATCC 9763, according to the standardized disk diffusion Kirby–Bauer method.
(§2) Peptide solutions in DMSO were adsorbed into paper disks (Macherey‐Nagel 615, Germany) of 6 mm in diameter. Every disk was loaded with 100 μg of peptide. The bacteria inoculum was of 0.5 Mc Farland, corresponding to 1–2 x 10^8 CFU/mL. The tests were carried out on Mueller–Hinton culture medium at pH 7.2–7.4 with incubation at 37°C for 20 h. Peptide activity was determined by measuring the diameters (in millimeters) of bacteria/fungi growth inhibition around the paper disks.

[3] = tested on: various bacterial strains, both Gram‐positive and Gram‐negative, as well as S. cerevisiae; experiment: Kirby–Bauer disk diffusion, whole panel; assay type: cell-based; conditions: 100 μg peptide per disk, 37°C, 20 h, all strains tested
Procedure: as §1, §2

SMILES	serum stability, ranking in words [1]	solubility in water, in words [2]	diameter of growth inhibition, S. ent. ATCC 13076 (S. ent. ATCC 13076)	other results
CCCCCCCCCCCC(=O)N[C@H](Cn1ccnc1)C(=O)N[C@@H](C)C(=O)N[C@H](C)C(=O)N[C@H](Cn1ccnc1)C(N)=O [P8, Laur‐D‐His*‐Ala‐D‐Ala‐D‐His*‐NH2]	best candidates in terms of serum stability			
CCCCCCCCCCCCCCCC(=O)N[C@@H](Cn1ccnc1)C(=O)N[C@@H](C)C(=O)N[C@H](C)C(=O)N[C@@H](Cn1ccnc1)C(N)=O [P1, Palm‐L‐His*‐Ala‐D‐Ala‐L‐His*‐NH2]		poor solubility in water		
CCCCCCCCCCCC(=O)N[C@@H](Cc1c[nH]cn1)C(=O)N[C@@H](C)C(=O)N[C@H](C)C(=O)N[C@@H](Cc1c[nH]cn1)C(N)=O [P6, Laur‐His‐Ala‐D‐Ala‐His‐NH2] (HELM PEPTIDE1{[CCCCCCCCCCCC(=O)[*:2]].H.A.[dA].H.[am]}$$$$V2.0)			9 mm	
CCCCCCCCCCCCCCCC(=O)N[C@H](Cn1ccnc1)C(=O)N[C@@H](C)C(=O)N[C@H](C)C(=O)N[C@H](Cn1ccnc1)C(N)=O [P2, Palm‐D‐His*‐Ala‐D‐Ala‐D‐His*‐NH2]	best candidates in terms of serum stability	poor solubility in water		
CCCCCCCCCCCCCCCC(=O)N[C@@H](Cc1c[nH]cn1)C(=O)N[C@@H](C)C(=O)N[C@H](C)C(=O)N[C@@H](Cc1c[nH]cn1)C(N)=O [P0, Palm‐His‐Ala‐D‐Ala‐His‐NH2] (HELM PEPTIDE1{[CCCCCCCCCCCCCCCC(=O)[*:2]].H.A.[dA].H.[am]}$$$$V2.0)		poor solubility in water	10 mm	activity against Salmonella enterica ATCC 13076, in words (S. ent. ATCC 13076; 100 μg peptide per disk, 37°C): selectively active
CC(=O)N[C@@H](Cc1c[nH]cn1)C(=O)N[C@@H](C)C(=O)N[C@H](C)C(=O)N[C@@H](Cc1c[nH]cn1)C(=O)NCCCCCCCCCCC(N)=O [P3, Ac‐His‐Ala‐D‐Ala‐His‐Aun‐NH2] (HELM PEPTIDE1{[ac].H.A.[dA].H.[O=C(CCCCCCCCCCN[*:1])[*:2]].[am]}$$$$V2.0)				antimicrobial activity over the panel, in words [3]: no activity
